This is an account of results in publication PMC9023740, “Mucin-Type O-Glycosylation Proximal to β-Secretase Cleavage Site Affects APP Processing and Aggregation Fate” (Frontiers in Chemistry, 2022).

SMILES strings stand for the structures.

For this series, the target named is T1, Recombinant human BACE-1 (rhBACE-1) (Homo sapiens, UniProt P56817).
T1 construct: purchased R&D Systems #ES004 and #931-AS, respectively (so in the source)
Kind of series: Proteolytic cleavage of APP (glyco)peptides by BACE-1, RP-HPLC peak integration. It is filed as biochemical. To be noted: 100 μM substrate, 50 nM rhBACE-1, 0.1 M sodium acetate pH 4.0, 24 h, 37°C, dark; RP-HPLC peak integration at 214 nm, averaged from two injections, SD <5%. The protocol:
All APP-based substrates were prepared as 10 mM stocks in DMSO. Before proteolysis, the activity of BACE-1 was verified by the reaction with the fluorogenic BACE-1substrate Mca-[…](Dnp)RR-NH2 ([Koike et al., 1999]) as per the manufacturer’s instructions. For the proteolysis assay, APP-based substrates were diluted in BACE-1 activity buffer (0.1 M sodium acetate, pH 4.0) to the final assay concentration of 100 μM. BACE-1 was diluted to 50 nM final concentration. Reactions were incubated for 24 h at 37°C in the dark. After the incubation period, the enzyme cleavage solutions containing APP-based substrates and BACE-1 were analyzed using the analytical RP-HPLC method on the Aeris C18 column with 0.1% TFA in water (A) and 0.1% TFA in acetonitrile (B) as eluents and 0–60% B as the elution gradient over 30 min with a flow rate of 0.8 ml/min, and detection at 214 nm or the Vydac Denali C18 column with 0.1% TFA in water (A) and 0.1% TFA in acetonitrile (B) as eluents and 0–60% B as the elution gradient over 30 min with a flow rate of 1 ml/min, and detection at 214 nm. The identity of intact and cleaved (N- and C-terminal) fragments of (glyco)peptides in the absence and presence of BACE-1 (β-secretase) was confirmed by MALDI-TOF and their percentages were evaluated by the integration of the RP-HPLC peaks (averaged from two injections).
Glycosylation can alter substrate recognition and impact enzyme activity in either a positive (enhancing) or negative (inhibiting) manner ([Goettig, 2016]; [Goth et al., 2018]). The mucin-type O-linked glycosylation of a protein may not only affect its conformation but also affect its transport and localization in the cell ([Matsuura et al., 1989]; [Chen et al., 2002]). Proteases are highly regulated by post-translational modifications and drive fate, localization, and activity of many proteins ([Bond, 2019]). Certain mutations can also affect the subcellular localization of the cleavage event by crucial proteases and mediate a different cellular mechanism for the protein ([Haass et al., 1995]). […] Therefore, similar enzyme cleavage assays with BACE-1 were set up to explore the effect of the Swedish mutation, length of the amino acid sequence, glycan position and valency on the proteolytic susceptibility of 3–12. BACE1 produced two fragments upon cleavage of (glyco)peptides, for which yields were determined after 24 h treatment. The yields of intact peptide and fragments were evaluated by the RP-HPLC peaks integration (Table 3, and the Supplementary Material S20–S32).
3. Enzyme cleavage assays with APP (glyco)peptides 3-12 by RP-HPLC and MALDI-TOF MS
For the BACE1 enzyme cleavage assay, APP-based (glyco)peptide substrates were diluted in BACE1 activity buffer and incubated with BACE1 for 24 h at 37 °C in the dark. After the incubation period, the enzyme cleavage solutions containing APP-based (glyco)peptide substrates and BACE1 were analyzed using analytical RP-HPLC.
RP-HPLC gradient on Phenomenex Aeris Peptide C18 column (150 x 4.6 mm, 3.6 µm, 100Å):
Eluents were 0.1% TFA in water (A) and 0.1% TFA in acetonitrile (B). The elution gradient was 0-60%B in 30 minutes with a flow rate of 0.8 mL/min. Detection was at λ = 214 nm.
S*/T*= Ser(-α-GalNAc) 1/Thr(-α-GalNAc) 2
(a) APP665-680, 3 in activity buffer
(b) APP665-680 (3) + BACE1 in activity buffer […]

T1 sequence (P56817 46-457 limits assumed): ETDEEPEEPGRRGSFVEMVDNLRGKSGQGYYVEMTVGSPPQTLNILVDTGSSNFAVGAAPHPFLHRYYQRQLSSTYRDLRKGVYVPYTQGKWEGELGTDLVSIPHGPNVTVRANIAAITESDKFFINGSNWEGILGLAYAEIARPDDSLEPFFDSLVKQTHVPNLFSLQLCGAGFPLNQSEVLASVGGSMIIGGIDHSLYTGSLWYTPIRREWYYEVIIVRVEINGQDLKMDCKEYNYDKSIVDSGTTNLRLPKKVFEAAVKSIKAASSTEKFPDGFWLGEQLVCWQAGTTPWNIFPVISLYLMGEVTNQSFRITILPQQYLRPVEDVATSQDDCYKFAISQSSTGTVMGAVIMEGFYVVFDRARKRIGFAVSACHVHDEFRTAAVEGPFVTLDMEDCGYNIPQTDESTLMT

As for `CC[C@H](C)[C@H](N)C(=O)N[C@@H](CCCCN)C(=O)N[C@H](C(=O)N[C@@H](CCC(=O)O)C(=O)N[C@@H](CCC(=O)O)C(=O)N[C@H](C(=O)N[C@@H](CO)C(=O)N[C@@H](CCC(=O)O)C(=O)N[C@H](C(=O)N[C@@H](CC(N)=O)C(=O)N[C@@H](CC(C)C)C(=O)N[C@@H](CC(=O)O)C(=O)N[C@@H](C)C(=O)N[C@@H](CCC(=O)O)C(=O)N[C@@H](Cc1ccccc1)C(=O)N[C@@H](CCCNC(=N)N)C(=O)N[C@@H](Cc1c[nH]cn1)C(=O)N[C@@H](CC(=O)O)C(=O)N[C@@H](CO)C(=O)NCC(N)=O)C(C)C)[C@@H](C)CC)[C@@H](C)O` [compound 10], the “BACE-1 activity, Cleaved (%)” value stood at 79.7% and the “BACE-1 activity, Recovered (%)” value was 20.3%.
Taken in the same sequence, the figures for `CC[C@H](C)[C@H](NC(=O)[C@@H](N)CCC(=O)O)C(=O)N[C@@H](CO[C@H]1O[C@H](CO)[C@H](O)[C@H](O)[C@H]1NC(C)=O)C(=O)N[C@@H](CCC(=O)O)C(=O)N[C@H](C(=O)N[C@@H](CC(N)=O)C(=O)N[C@@H](CC(C)C)C(=O)N[C@@H](CC(=O)O)C(=O)N[C@@H](C)C(=O)N[C@@H](CCC(=O)O)C(=O)N[C@@H](Cc1ccccc1)C(=O)N[C@@H](CCCNC(=N)N)C(=O)N[C@@H](Cc1c[nH]cn1)C(=O)N[C@@H](CC(=O)O)C(=O)N[C@@H](CO)C(=O)NCC(N)=O)C(C)C` [compound 6] were 93.0% and 7.02%.
Taken in the same sequence, the figures for `CC[C@H](C)[C@H](N)C(=O)N[C@@H](CCCCN)C(=O)N[C@H](C(=O)N[C@@H](CCC(=O)O)C(=O)N[C@@H](CCC(=O)O)C(=O)N[C@H](C(=O)N[C@@H](CO)C(=O)N[C@@H](CCC(=O)O)C(=O)N[C@H](C(=O)N[C@@H](CC(N)=O)C(=O)N[C@@H](CC(C)C)C(=O)N[C@@H](CC(=O)O)C(=O)N[C@@H](C)C(=O)N[C@@H](CCC(=O)O)C(=O)N[C@@H](Cc1ccccc1)C(=O)N[C@@H](CCCNC(=N)N)C(=O)N[C@@H](Cc1c[nH]cn1)C(=O)N[C@@H](CC(=O)O)C(=O)N[C@@H](CO)C(=O)NCC(N)=O)C(C)C)[C@@H](C)CC)[C@@H](C)O[C@H]1O[C@H](CO)[C@H](O)[C@H](O)[C@H]1NC(C)=O` [compound 11] were 98.1% and 1.90%.
Taken in the same sequence, the figures for `CC[C@H](C)[C@H](N)C(=O)N[C@@H](CCCCN)C(=O)N[C@H](C(=O)N[C@@H](CCC(=O)O)C(=O)N[C@@H](CCC(=O)O)C(=O)N[C@H](C(=O)N[C@@H](CO)C(=O)N[C@@H](CCC(=O)O)C(=O)N[C@H](C(=O)N[C@@H](CCCCN)C(=O)N[C@@H](CCSC)C(=O)N[C@@H](CC(=O)O)C(=O)N[C@@H](C)C(=O)N[C@@H](CCC(=O)O)C(=O)N[C@@H](Cc1ccccc1)C(=O)N[C@@H](CCCNC(=N)N)C(=O)N[C@@H](Cc1c[nH]cn1)C(=O)N[C@@H](CC(=O)O)C(=O)N[C@@H](CO)C(=O)NCC(N)=O)C(C)C)[C@@H](C)CC)[C@@H](C)O` [compound 7] were 3.40% and 96.6%.
Regarding `CC[C@H](C)[C@H](NC(=O)[C@@H](N)CCC(=O)O)C(=O)N[C@@H](CO)C(=O)N[C@@H](CCC(=O)O)C(=O)N[C@H](C(=O)N[C@@H](CC(N)=O)C(=O)N[C@@H](CC(C)C)C(=O)N[C@@H](CC(=O)O)C(=O)N[C@@H](C)C(=O)N[C@@H](CCC(=O)O)C(=O)N[C@@H](Cc1ccccc1)C(=O)N[C@@H](CCCNC(=N)N)C(=O)N[C@@H](Cc1c[nH]cn1)C(=O)N[C@@H](CC(=O)O)C(=O)N[C@@H](CO)C(=O)NCC(N)=O)C(C)C` [compound 5], the “BACE-1 activity, Cleaved (%)” value came to 96.2% and the “BACE-1 activity, Recovered (%)” value came out at 3.82%.
Take `CC[C@H](C)[C@H](NC(=O)[C@@H](N)CCC(=O)O)C(=O)N[C@@H](CO)C(=O)N[C@@H](CCC(=O)O)C(=O)N[C@H](C(=O)N[C@@H](CCCCN)C(=O)N[C@@H](CCSC)C(=O)N[C@@H](CC(=O)O)C(=O)N[C@@H](C)C(=O)N[C@@H](CCC(=O)O)C(=O)N[C@@H](Cc1ccccc1)C(=O)N[C@@H](CCCNC(=N)N)C(=O)N[C@@H](Cc1c[nH]cn1)C(=O)N[C@@H](CC(=O)O)C(=O)N[C@@H](CO)C(=O)NCC(N)=O)C(C)C` [compound 3]: the “BACE-1 activity, Cleaved (%)” value turned out to be 4.48% and the “BACE-1 activity, Recovered (%)” value worked out at 95.5%.
Taken in the same sequence, the figures for `CC[C@H](C)[C@H](NC(=O)[C@@H](N)CCC(=O)O)C(=O)N[C@@H](CO[C@H]1O[C@H](CO)[C@H](O)[C@H](O)[C@H]1NC(C)=O)C(=O)N[C@@H](CCC(=O)O)C(=O)N[C@H](C(=O)N[C@@H](CCCCN)C(=O)N[C@@H](CCSC)C(=O)N[C@@H](CC(=O)O)C(=O)N[C@@H](C)C(=O)N[C@@H](CCC(=O)O)C(=O)N[C@@H](Cc1ccccc1)C(=O)N[C@@H](CCCNC(=N)N)C(=O)N[C@@H](Cc1c[nH]cn1)C(=O)N[C@@H](CC(=O)O)C(=O)N[C@@H](CO)C(=O)NCC(N)=O)C(C)C` [compound 4] were 1.40% and 98.6%.
The like results for `CC[C@H](C)[C@H](N)C(=O)N[C@@H](CCCCN)C(=O)N[C@H](C(=O)N[C@@H](CCC(=O)O)C(=O)N[C@@H](CCC(=O)O)C(=O)N[C@H](C(=O)N[C@@H](CO[C@H]1O[C@H](CO)[C@H](O)[C@H](O)[C@H]1NC(C)=O)C(=O)N[C@@H](CCC(=O)O)C(=O)N[C@H](C(=O)N[C@@H](CC(N)=O)C(=O)N[C@@H](CC(C)C)C(=O)N[C@@H](CC(=O)O)C(=O)N[C@@H](C)C(=O)N[C@@H](CCC(=O)O)C(=O)N[C@@H](Cc1ccccc1)C(=O)N[C@@H](CCCNC(=N)N)C(=O)N[C@@H](Cc1c[nH]cn1)C(=O)N[C@@H](CC(=O)O)C(=O)N[C@@H](CO)C(=O)NCC(N)=O)C(C)C)[C@@H](C)CC)[C@@H](C)O[C@H]1O[C@H](CO)[C@H](O)[C@H](O)[C@H]1NC(C)=O` [compound 12] were, in that order, 96.1% and 3.90%.
